According to PubChem BioAssay (NCI):
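Growth conditions: 96-well plates. Treatment: test compound, 48 hours, 5 concentrations. Analysis: linear interpolation between bracketing concentrations; unreached endpoints set to highest concentration. Definition used: TGI = concentration required for complete inhibition of growth.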

Assays:
Assay in all cases: NCI anticancer screen, dose series, 48 h
SK-MEL-5 melanoma = test system: SK-MEL-5 melanoma
NCI-H460 lung = test system: NCI-H460 lung
TK-10 renal = test system: TK-10 renal
OVCAR-3 ovarian = test system: OVCAR-3 ovarian
SN12C renal = test system: SN12C renal
ACHN renal = test system: ACHN renal
MDA-MB-231 breast = test system: MDA-MB-231 breast
DU-145 prostate = test system: DU-145 prostate
OVCAR-4 ovarian = test system: OVCAR-4 ovarian
OVCAR-8 ovarian = test system: OVCAR-8 ovarian
SK-MEL-2 melanoma = test system: SK-MEL-2 melanoma
HCT-116 colon = test system: HCT-116 colon
UACC-257 melanoma = test system: UACC-257 melanoma
KM12 colon = test system: KM12 colon
BT-549 breast = test system: BT-549 breast
T-47D breast = test system: T-47D breast
MDA-MB-435 = test system: MDA-MB-435
SF-295 CNS = test system: SF-295 CNS
NCI/ADR-RES ovarian = test system: NCI/ADR-RES ovarian
SK-MEL-28 melanoma = test system: SK-MEL-28 melanoma
A549 NSCLC = test system: A549 NSCLC
SK-OV-3 ovarian = test system: SK-OV-3 ovarian
MOLT-4 leukemia = test system: MOLT-4 leukemia
PC-3 prostate = test system: PC-3 prostate
LOX IMVI melanoma = test system: LOX IMVI melanoma
MCF7 breast = test system: MCF7 breast
NCI-H226 lung = test system: NCI-H226 lung
HL-60(TB) leukemia = test system: HL-60(TB) leukemia
SNB-19 CNS = test system: SNB-19 CNS
SW-620 colon = test system: SW-620 colon
OVCAR-5 ovarian = test system: OVCAR-5 ovarian
M14 melanoma = test system: M14 melanoma
HOP-62 NSCLC = test system: HOP-62 NSCLC
HCT-15 colon = test system: HCT-15 colon
COLO 205 colon = test system: COLO 205 colon
UO-31 renal = test system: UO-31 renal
HT29 colon = test system: HT29 colon
SNB-75 CNS = test system: SNB-75 CNS
IGROV1 ovarian = test system: IGROV1 ovarian
U251 CNS = test system: U251 CNS
SF-539 CNS = test system: SF-539 CNS
HCC-2998 colon = test system: HCC-2998 colon
MDA-N = test system: MDA-N
NCI-H23 lung = test system: NCI-H23 lung
EKVX NSCLC = test system: EKVX NSCLC
HOP-92 NSCLC = test system: HOP-92 NSCLC
786-0 renal = test system: 786-0 renal
CAKI-1 renal = test system: CAKI-1 renal
HS 578T breast = test system: HS 578T breast
SF-268 CNS = test system: SF-268 CNS
RXF 393 renal = test system: RXF 393 renal
MALME-3M melanoma = test system: MALME-3M melanoma
NCI-H522 lung = test system: NCI-H522 lung
UACC-62 melanoma = test system: UACC-62 melanoma
A498 renal = test system: A498 renal
SR leukemia = test system: SR leukemia
K-562 leukemia = test system: K-562 leukemia
CCRF-CEM leukemia = test system: CCRF-CEM leukemia
RPMI-8226 leukemia = test system: RPMI-8226 leukemia

## Cc1cc(O)c(/C=N/C(=S)NCCc2ccccc2)c(=O)o1
SK-MEL-5 melanoma
  TGI: > 100 µM
NCI-H460 lung
  TGI: > 100 µM
TK-10 renal
  TGI: > 100 µM
OVCAR-3 ovarian
  TGI: > 100 µM
SN12C renal
  TGI: > 100 µM
ACHN renal
  TGI: > 100 µM
MDA-MB-231 breast
  TGI: > 100 µM
DU-145 prostate
  TGI: > 100 µM
OVCAR-4 ovarian
  TGI: > 100 µM
OVCAR-8 ovarian
  TGI: > 100 µM
SK-MEL-2 melanoma
  TGI: > 100 µM
HCT-116 colon
  TGI: > 100 µM
UACC-257 melanoma
  TGI: > 100 µM
KM12 colon
  TGI: > 100 µM
BT-549 breast
  TGI: > 100 µM
T-47D breast
  TGI: > 100 µM
MDA-MB-435
  TGI: > 100 µM
SF-295 CNS
  TGI: > 100 µM
NCI/ADR-RES ovarian
  TGI: > 100 µM
SK-MEL-28 melanoma
  TGI: > 100 µM
A549 NSCLC
  TGI: > 100 µM
SK-OV-3 ovarian
  TGI: > 100 µM
MOLT-4 leukemia
  TGI: > 100 µM
PC-3 prostate
  TGI: > 100 µM
LOX IMVI melanoma
  TGI: > 100 µM
MCF7 breast
  TGI: > 100 µM
NCI-H226 lung
  TGI: > 100 µM
HL-60(TB) leukemia
  TGI: > 100 µM
SNB-19 CNS
  TGI: > 100 µM
SW-620 colon
  TGI: > 100 µM
OVCAR-5 ovarian
  TGI: > 100 µM
M14 melanoma
  TGI: > 100 µM
HOP-62 NSCLC
  TGI: > 100 µM
HCT-15 colon
  TGI: > 100 µM
COLO 205 colon
  TGI: > 100 µM
UO-31 renal
  TGI: > 100 µM
HT29 colon
  TGI: > 100 µM
SNB-75 CNS
  TGI: > 100 µM
IGROV1 ovarian
  TGI: > 100 µM
U251 CNS
  TGI: > 100 µM
SF-539 CNS
  TGI: > 100 µM
HCC-2998 colon
  TGI: > 100 µM
MDA-N
  TGI: > 100 µM
NCI-H23 lung
  TGI: > 100 µM
EKVX NSCLC
  TGI: > 100 µM
HOP-92 NSCLC
  TGI: > 100 µM
786-0 renal
  TGI: > 100 µM
CAKI-1 renal
  TGI: > 100 µM

## C/C(=N\NC(=S)N1CC2CCC(CC2)C1)c1ccncn1
SK-MEL-5 melanoma
  TGI: 0.833 µM
NCI-H460 lung
  TGI: 1.65 µM
TK-10 renal
  TGI: 2.56 µM
HS 578T breast
  TGI: > 24.4 µM
SN12C renal
  TGI: 5.16 µM
ACHN renal
  TGI: 3.28 µM
SF-268 CNS
  TGI: 3.62 µM
DU-145 prostate
  TGI: 6.26 µM
RXF 393 renal
  TGI: 2.25 µM
OVCAR-4 ovarian
  TGI: 9.92 µM
SK-MEL-2 melanoma
  TGI: 5.39 µM
HCT-116 colon
  TGI: 1.5 µM
UACC-257 melanoma
  TGI: 2.91 µM
KM12 colon
  TGI: 3.16 µM
MALME-3M melanoma
  TGI: 1.42 µM
BT-549 breast
  TGI: 3.54 µM
T-47D breast
  TGI: 3.48 µM
MDA-MB-435
  TGI: 5.9 µM
SF-295 CNS
  TGI: 4.94 µM
SK-MEL-28 melanoma
  TGI: > 22.6 µM
A549 NSCLC
  TGI: 1.94 µM
SK-OV-3 ovarian
  TGI: 1.6 µM
PC-3 prostate
  TGI: 15 µM
LOX IMVI melanoma
  TGI: 3.1 µM
MCF7 breast
  TGI: 7.61 µM
NCI-H226 lung
  TGI: 2.33 µM
HL-60(TB) leukemia
  TGI: 1.44 µM
SNB-19 CNS
  TGI: 15 µM
SW-620 colon
  TGI: 18.4 µM
OVCAR-5 ovarian
  TGI: 5.44 µM
M14 melanoma
  TGI: 2.36 µM
HOP-62 NSCLC
  TGI: 12.1 µM
COLO 205 colon
  TGI: < 0.0333 µM
UO-31 renal
  TGI: 0.911 µM
NCI-H522 lung
  TGI: 2.32 µM
HT29 colon
  TGI: 5.5 µM
UACC-62 melanoma
  TGI: 1.04 µM
SNB-75 CNS
  TGI: 3.4 µM
IGROV1 ovarian
  TGI: 3.78 µM
U251 CNS
  TGI: 6.23 µM
SF-539 CNS
  TGI: 2.02 µM
A498 renal
  TGI: 2.84 µM
MDA-N
  TGI: 15.4 µM
NCI-H23 lung
  TGI: 2.4 µM
EKVX NSCLC
  TGI: 4.21 µM
HOP-92 NSCLC
  TGI: 3.9 µM
786-0 renal
  TGI: 2.86 µM
CAKI-1 renal
  TGI: 2.44 µM

## O=C1NC(Nc2cccc(Cl)c2)=N/C1=C\c1ccc(Cl)c(Cl)c1
SK-MEL-5 melanoma
  TGI: 19.1 µM
NCI-H460 lung
  TGI: 5.67 µM
TK-10 renal
  TGI: 22.4 µM
HS 578T breast
  TGI: 13.4 µM
OVCAR-3 ovarian
  TGI: 19.7 µM
SN12C renal
  TGI: 5.57 µM
ACHN renal
  TGI: 17 µM
SF-268 CNS
  TGI: 19.4 µM
SR leukemia
  TGI: 7.37 µM
DU-145 prostate
  TGI: 20.6 µM
RXF 393 renal
  TGI: 10.4 µM
OVCAR-4 ovarian
  TGI: 5.49 µM
OVCAR-8 ovarian
  TGI: 16 µM
SK-MEL-2 melanoma
  TGI: 6.77 µM
HCT-116 colon
  TGI: 14.2 µM
UACC-257 melanoma
  TGI: 22.2 µM
KM12 colon
  TGI: 14.8 µM
MALME-3M melanoma
  TGI: 27.8 µM
BT-549 breast
  TGI: 25.1 µM
T-47D breast
  TGI: 14.2 µM
MDA-MB-435
  TGI: 17.6 µM
SF-295 CNS
  TGI: 17.2 µM
NCI/ADR-RES ovarian
  TGI: 16.2 µM
SK-MEL-28 melanoma
  TGI: 32.1 µM
A549 NSCLC
  TGI: 16 µM
SK-OV-3 ovarian
  TGI: 27.5 µM
MOLT-4 leukemia
  TGI: 20.8 µM
PC-3 prostate
  TGI: 13.3 µM
LOX IMVI melanoma
  TGI: 4.26 µM
MCF7 breast
  TGI: 11.1 µM
K-562 leukemia
  TGI: 14.5 µM
NCI-H226 lung
  TGI: 17.2 µM
HL-60(TB) leukemia
  TGI: 15.1 µM
SNB-19 CNS
  TGI: 21 µM
SW-620 colon
  TGI: 19.6 µM
OVCAR-5 ovarian
  TGI: 21.8 µM
M14 melanoma
  TGI: 14.9 µM
HOP-62 NSCLC
  TGI: 23.4 µM
HCT-15 colon
  TGI: 18.6 µM
CCRF-CEM leukemia
  TGI: 35.3 µM
RPMI-8226 leukemia
  TGI: 22.7 µM
COLO 205 colon
  TGI: 13.1 µM
UO-31 renal
  TGI: 20.6 µM
NCI-H522 lung
  TGI: 6.62 µM
HT29 colon
  TGI: 19.6 µM
UACC-62 melanoma
  TGI: 21.6 µM
SNB-75 CNS
  TGI: 26.6 µM
IGROV1 ovarian
  TGI: 18.7 µM
U251 CNS
  TGI: 14.6 µM
SF-539 CNS
  TGI: 22.2 µM
A498 renal
  TGI: 16.3 µM
HCC-2998 colon
  TGI: 5.27 µM
MDA-N
  TGI: 15.8 µM
NCI-H23 lung
  TGI: 14.1 µM
EKVX NSCLC
  TGI: 12.2 µM
HOP-92 NSCLC
  TGI: 11.4 µM
786-0 renal
  TGI: 13 µM
CAKI-1 renal
  TGI: 18.4 µM
